In brackets after ≈: the same amount, converted by molar mass. Read-outs that look alike come from different tables or passages of the source.
Legend:
[1] = target: calcium channel, L-type, benzothiazepine (Rattus norvegicus, UniProt P22002); assay: biochemical; details: read-out: % Inh.
hRSV strain Long = assay: hRSV CPE assay; type: cell-based, human respiratory syncytial virus
RSV = assay: viral titer; type: cell-based, human respiratory syncytial virus; details: for log reduction at 10 µM: human respiratory syncytial virus, read-out: viral titer reduction at 10 µM
recMeV-luciferase = recMeV-luciferase assay; type: cell-based, measles virus; details: luciferase readout, reporter interference control
[2] = target: calcium channel, L-type, dihydropyridine (Rattus norvegicus, UniProt P22002); assay: Panlabs 214600 radioligand binding; details: read-out: % Inh.
recRSV-luciferase = recRSV-luciferase assay; type: cell-based, respiratory syncytial virus; details: luciferase readout
[3] = for Pe, PAMPA permeability: PBS, no additives
[4] = test system: Fa2N-4 immortalized human hepatocytes; details: read-out: hepatocyte toxicity LC50
[5] = not given; remark: listed apart in the source
[6] = human respiratory syncytial virus, HEp-2, read-out: RSV CPE potency ± standard deviation EC50, HEp-2 cells, hRSV strain Long, 10-point dose response

Sequence of calcium channel, L-type, dihydropyridine (P22002 whole entry): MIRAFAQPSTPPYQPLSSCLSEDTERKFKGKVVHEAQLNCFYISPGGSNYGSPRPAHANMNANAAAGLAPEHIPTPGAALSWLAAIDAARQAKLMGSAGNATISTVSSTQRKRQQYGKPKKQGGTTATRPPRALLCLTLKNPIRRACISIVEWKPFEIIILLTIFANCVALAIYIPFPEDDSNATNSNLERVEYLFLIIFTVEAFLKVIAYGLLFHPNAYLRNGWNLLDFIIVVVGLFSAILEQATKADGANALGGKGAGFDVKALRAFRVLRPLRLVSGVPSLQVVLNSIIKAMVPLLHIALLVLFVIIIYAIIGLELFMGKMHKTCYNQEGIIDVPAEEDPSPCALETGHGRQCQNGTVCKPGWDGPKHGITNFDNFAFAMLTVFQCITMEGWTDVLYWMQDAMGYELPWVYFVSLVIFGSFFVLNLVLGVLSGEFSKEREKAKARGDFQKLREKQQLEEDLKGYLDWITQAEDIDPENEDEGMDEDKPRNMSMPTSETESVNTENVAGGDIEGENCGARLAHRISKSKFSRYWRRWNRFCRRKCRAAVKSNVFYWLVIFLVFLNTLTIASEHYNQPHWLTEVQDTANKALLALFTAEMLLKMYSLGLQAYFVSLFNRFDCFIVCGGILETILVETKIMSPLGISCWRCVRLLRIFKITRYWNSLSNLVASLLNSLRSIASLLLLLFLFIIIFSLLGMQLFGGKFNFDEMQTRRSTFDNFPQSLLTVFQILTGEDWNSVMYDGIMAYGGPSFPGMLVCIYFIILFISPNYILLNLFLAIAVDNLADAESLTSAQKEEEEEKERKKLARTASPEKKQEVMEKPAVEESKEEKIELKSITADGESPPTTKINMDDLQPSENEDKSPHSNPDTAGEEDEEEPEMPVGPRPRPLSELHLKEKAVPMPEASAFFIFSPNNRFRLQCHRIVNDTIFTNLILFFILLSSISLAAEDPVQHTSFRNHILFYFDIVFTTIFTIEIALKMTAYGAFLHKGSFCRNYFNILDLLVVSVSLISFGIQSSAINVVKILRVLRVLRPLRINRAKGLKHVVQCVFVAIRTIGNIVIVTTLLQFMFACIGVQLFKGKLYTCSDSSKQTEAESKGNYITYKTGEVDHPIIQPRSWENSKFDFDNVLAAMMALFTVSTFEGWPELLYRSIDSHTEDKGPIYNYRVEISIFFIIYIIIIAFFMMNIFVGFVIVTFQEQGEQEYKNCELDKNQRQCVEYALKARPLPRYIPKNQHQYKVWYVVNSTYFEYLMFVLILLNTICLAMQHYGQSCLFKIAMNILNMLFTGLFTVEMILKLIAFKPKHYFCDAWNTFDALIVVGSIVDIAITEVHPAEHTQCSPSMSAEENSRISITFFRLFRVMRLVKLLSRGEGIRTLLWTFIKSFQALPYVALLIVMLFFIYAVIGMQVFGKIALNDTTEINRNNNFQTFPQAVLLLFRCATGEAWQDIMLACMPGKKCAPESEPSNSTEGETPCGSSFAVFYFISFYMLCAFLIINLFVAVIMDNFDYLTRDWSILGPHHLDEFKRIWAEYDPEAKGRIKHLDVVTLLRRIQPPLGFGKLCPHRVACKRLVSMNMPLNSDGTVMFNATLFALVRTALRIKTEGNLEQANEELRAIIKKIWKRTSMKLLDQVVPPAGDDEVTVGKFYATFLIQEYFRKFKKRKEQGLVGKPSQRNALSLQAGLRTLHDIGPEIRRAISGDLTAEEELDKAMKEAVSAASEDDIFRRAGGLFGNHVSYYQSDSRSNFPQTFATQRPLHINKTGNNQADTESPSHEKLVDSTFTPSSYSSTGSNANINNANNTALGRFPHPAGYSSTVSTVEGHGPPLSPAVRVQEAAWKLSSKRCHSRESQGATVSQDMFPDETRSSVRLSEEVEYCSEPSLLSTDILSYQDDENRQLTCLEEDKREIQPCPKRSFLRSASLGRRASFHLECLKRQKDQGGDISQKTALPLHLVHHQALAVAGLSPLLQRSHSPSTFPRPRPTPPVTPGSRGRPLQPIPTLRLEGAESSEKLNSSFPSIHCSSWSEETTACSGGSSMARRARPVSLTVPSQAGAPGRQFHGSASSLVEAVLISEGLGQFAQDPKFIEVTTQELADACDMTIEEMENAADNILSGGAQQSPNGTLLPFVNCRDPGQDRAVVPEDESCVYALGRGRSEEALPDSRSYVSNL
Sequence of calcium channel, L-type, benzothiazepine (P22002 whole entry): as above

Molecule `COCCCNC(=O)c1ccc(Cn2c(=O)c3ccccc3n(Cc3ccc(C(C)C)cc3)c2=O)cc1` [Compound 19, 4-((1-(4-isopropylbenzyl)-2,4-dioxo-1,2-dihydroquinazolin-3(4H)-yl)methyl)-N-(3-methoxypropyl)benzamide] has an inhibition at 10 µM [1] of 52%, an EC50 (hRSV strain Long; [6]) of 300 ± 30 nM and an EC50 (hRSV strain Long; human respiratory syncytial virus, RSV CPE, as given in abstract) of 300 to 500 nM. For the same molecule, the log reduction at 10 µM (RSV) was 6.7, the “activity against recMeV-luciferase” value (recMeV-luciferase) was “inactive” and the inhibition at 10 µM [2] was 70%. The “inhibition of recRSV-luciferase” value (recRSV-luciferase) was “efficiently inhibited”.
In the case of `Cc1ccc(Cn2c(=O)n(Cc3ccc(C(=O)NCC4COC4)cc3)c(=O)c3ccccc32)cc1` [Compound 29, 4-((1-(4-Methylbenzyl)-2,4-dioxo-1,2-dihydroquinazolin-3(4H)-yl)methyl)-N-(oxetan-3-ylmethyl)benzamide], the EC50 (hRSV strain Long; [6]) is reported as 700 ± 100 nM and the log reduction at 10 µM (RSV) is reported as 5.1.
With `Cc1ccc(Cn2c(=O)n(Cc3ccc(C(=O)NCC4CCC4)cc3)c(=O)c3ccccc32)cc1` [Compound 30, N-(Cyclobutylmethyl)-4-((1-(4-methylbenzyl)-2,4-dioxo-1,2-dihydroquinazolin-3(4H)-yl)methyl)benzamide] the EC50 (hRSV strain Long; [6]) was 1000 ± 80 nM and the log reduction at 10 µM (RSV) was 1.2.
For `Cc1ccc(Cn2c(=O)n(Cc3ccc(C(=O)NC(C)(C)C)cc3)c(=O)c3ccccc32)cc1` [Compound 36, N-(tert-Butyl)-4-((1-(4-methylbenzyl)-2,4-dioxo-1,2-dihydroquinazolin-3(4H)-yl)methyl)benzamide], the EC50 (hRSV strain Long; [6]) was 700 ± 30 nM and the log reduction at 10 µM (RSV) was 5.5.
With `Cc1ccc(Cn2c(=O)n(Cc3ccc(C(=O)Nc4ccncc4)cc3)c(=O)c3ccccc32)cc1` [Compound 42, 4-((1-(4-Methylbenzyl)-2,4-dioxo-1,2-dihydroquinazolin-3(4H)-yl)methyl)-N-(pyridin-4-yl)benzamide] the EC50 (hRSV strain Long; [6]) was 1000 ± 40 nM and the log reduction at 10 µM (RSV) was 3.5.
In the case of `O=C(NCC1COC1)c1ccc(Cn2c(=O)c3ccccc3n(Cc3ccc([N+](=O)[O-])cc3)c2=O)cc1` [Compound 43, 4-((1-(4-Nitrobenzyl)-2,4-dioxo-1,2-dihydroquinazolin-3(4H)-yl)-methyl)-N-(oxetan-3-ylmethyl)benzamide], the EC50 (hRSV strain Long; [6]) is reported as 1300 ± 50 nM, the “increase in capacity to reduce viral titer over hit 2” value (RSV; 10 µM) is reported as no less than 2 log and the log reduction at 10 µM (RSV) is reported as greater than 6.2.
For `CC(C)c1ccc(Cn2c(=O)n(Cc3ccc(C(=O)NCC4COC4)cc3)c(=O)c3ccccc32)cc1` [Compound 44, 4-((1-(4-Isopropylbenzyl)-2,4-dioxo-1,2-dihydroquinazolin-3(4H)-yl)methyl)-N-(oxetan-3-ylmethyl)benzamide], the EC50 (hRSV strain Long; [6]) was 400 ± 10 nM and the log reduction at 10 µM (RSV) was 5.8.
For `CN(C)c1ccc(Cn2c(=O)n(Cc3ccc(C(=O)NCC4COC4)cc3)c(=O)c3ccccc32)cc1` [Compound 46, 4-((1-(4-(dimethylamino)benzyl)-2,4-dioxo-1,2-dihydroquinazolin-3(4H)-yl)methyl)-N-(oxetan-3-ylmethyl)-benzamide], the “passive permeability in words” value ([3]; at each of 3 pH levels) was “Moderate to good”, the “Pe, PAMPA permeability” value ([3]; donor pH 5.0, acceptor pH 7.4) was 780 ×10⁻⁶ cm/s and the “Pe, PAMPA permeability” value ([3]; donor pH 6.2, acceptor pH 7.4) was 686 ×10⁻⁶ cm/s. The “Pe, PAMPA permeability” value ([3]; donor pH 7.4, acceptor pH 7.4) was 514 ×10⁻⁶ cm/s, the CC50 [4] was greater than 50000 nM and the “aqueous stability, 1:1 PBS/ACN” value (percent parent remaining after 48 h in 1:1 PBS and acetonitrile) was 100%. The “aqueous stability, PBS” value (percent parent remaining after 48 h in PBS) was 90.2%, the “selectivity index (CC50/EC50)” value (hRSV strain Long; HEp-2 CC50 / RSV CPE EC50) was 41.8 and the EC50 (hRSV strain Long; read-out: RSV CPE potency ± standard deviation EC50, HEp-2 cells, hRSV strain Long, 10-point dose response) was 1100 ± 200 nM. For the same molecule, the “viral titer reduction at 10 µM” value (RSV; compound at 10 µM) was greater than 6.2 log, the “solubility, PBS” value ([5]; kinetic solubility in 1× PBS, pH 7.4) was 11.2 µM (≈ 5.58 µg/mL) and the “solubility, media” value ([5]; kinetic solubility in CPE assay media (DMEM/F12, Pen/Strep/Glutamine, 2% heat inactivated FBS)) was 18.5 µM (≈ 9.22 µg/mL).
`CC(C)(C)c1ccc(Cn2c(=O)n(Cc3ccc(C(=O)NCC4COC4)cc3)c(=O)c3ccccc32)cc1` [Compound 47, 4-((1-(4-tert-Butylbenzyl)-2,4-dioxo-1,2-dihydroquinazolin-3(4H)-yl)methyl)-N-(oxetan-3-ylmethyl)benzamide] gave an EC50 (hRSV strain Long; [6]) of 1600 ± 80 nM and a log reduction at 10 µM (RSV) of 3.4.
`CC(C)c1ccc(Cn2c(=O)n(Cc3ccc(C(=O)NCc4ccco4)cc3)c(=O)c3ccccc32)cc1` [Compound 48, N-(Furan-2-ylmethyl)-4-((1-(4-isopropylbenzyl)-2,4-dioxo-1,2-dihydroquinazolin-3(4H)-yl)methyl)benzamide] gave an EC50 (hRSV strain Long; [6]) of 1200 ± 100 nM and a log reduction at 10 µM (RSV) of 2.8.
